Values after ≈ are worked out from the molar mass of the structure shown.
Experiments:
Type in all cases: functional
Staphylococcus aureus [1] = assay: Antibacterial activity against methicillin-susceptible Staphylococcus aureus by CLSI M7-A7 broth microdilution method
Staphylococcus aureus [2] = assay: Antibacterial activity against methicillin-susceptible Staphylococcus aureus assessed as susceptible isolates by CLSI M7-A7 broth microdilution method
Staphylococcus aureus [3] = assay: Antibacterial activity against methicillin-susceptible Staphylococcus aureus assessed as resistant isolates by CLSI M7-A7 broth microdilution method
Staphylococcus aureus [4] = assay: Antibacterial activity against methicillin-resistant Staphylococcus aureus by CLSI M7-A7 broth microdilution method
Staphylococcus aureus [5] = assay: Antibacterial activity against methicillin-resistant Staphylococcus aureus assessed as susceptible isolates by CLSI M7-A7 broth microdilution method
Staphylococcus aureus [6] = assay: Antibacterial activity against methicillin-resistant Staphylococcus aureus assessed as resistant isolates by CLSI M7-A7 broth microdilution method
Staphylococcus aureus [7] = assay: Antibacterial activity against coagulase-negative and oxacillin-susceptible Staphylococcus aureus by CLSI M7-A7 broth microdilution method
Staphylococcus aureus [8] = assay: Antibacterial activity against coagulase-negative and oxacillin-susceptible Staphylococcus aureus assessed as susceptible isolates by CLSI M7-A7 broth microdilution method
Staphylococcus aureus [9] = assay: Antibacterial activity against coagulase-negative and oxacillin-susceptible Staphylococcus aureus assessed as resistant isolates by CLSI M7-A7 broth microdilution method
Staphylococcus aureus [10] = assay: Antibacterial activity against coagulase-negative and oxacillin-resistant Staphylococcus aureus by CLSI M7-A7 broth microdilution method
Staphylococcus aureus [11] = assay: Antibacterial activity against coagulase-negative and oxacillin-resistant Staphylococcus aureus assessed as susceptible isolates by CLSI M7-A7 broth microdilution method
Staphylococcus aureus [12] = assay: Antibacterial activity against coagulase-negative and oxacillin-resistant Staphylococcus aureus assessed as resistant isolates by CLSI M7-A7 broth microdilution method
Enterococcus faecalis [13] = assay: Antibacterial activity against vancomycin-susceptible Enterococcus faecalis by CLSI M7-A7 broth microdilution method
Enterococcus faecalis [14] = assay: Antibacterial activity against vancomycin-resistant Enterococcus faecalis by CLSI M7-A7 broth microdilution method
Enterococcus faecium = assay: Antibacterial activity against vancomycin-resistant Enterococcus faecium by CLSI M7-A7 broth microdilution method
Moraxella catarrhalis = assay: Antibacterial activity against beta lactamase-positive Moraxella catarrhalis by CLSI M7-A7 broth microdilution method
Enterobacteriaceae [15] = assay: Antibacterial activity against ceftazidime-susceptible Enterobacteriaceae by CLSI M7-A7 broth microdilution method
Enterobacteriaceae [16] = assay: Antibacterial activity against ceftazidime-susceptible Enterobacteriaceae assessed as susceptible isolates by CLSI M7-A7 broth microdilution method
Enterobacteriaceae [17] = assay: Antibacterial activity against ceftazidime-susceptible Enterobacteriaceae assessed as resistant isolates by CLSI M7-A7 broth microdilution method
Enterobacteriaceae [18] = assay: Antibacterial activity against ceftazidime-nonsusceptible Enterobacteriaceae by CLSI M7-A7 broth microdilution method
Enterobacteriaceae [19] = assay: Antibacterial activity against ceftazidime-nonsusceptible Enterobacteriaceae assessed as susceptible isolates by CLSI M7-A7 broth microdilution method
Enterobacteriaceae [20] = assay: Antibacterial activity against ceftazidime-nonsusceptible Enterobacteriaceae assessed as resistant isolates by CLSI M7-A7 broth microdilution method
Citrobacter freundii [21] = assay: Antibacterial activity against ceftazidime-susceptible Citrobacter freundii by CLSI M7-A7 broth microdilution method
Citrobacter freundii [22] = assay: Antibacterial activity against ceftazidime-susceptible Citrobacter freundii assessed as susceptible isolates by CLSI M7-A7 broth microdilution method
Citrobacter freundii [23] = assay: Antibacterial activity against ceftazidime-susceptible Citrobacter freundii assessed as resistant isolates by CLSI M7-A7 broth microdilution method
Citrobacter freundii [24] = assay: Antibacterial activity against ceftazidime-nonsusceptible Citrobacter freundii by CLSI M7-A7 broth microdilution method
Citrobacter freundii [25] = assay: Antibacterial activity against ceftazidime-nonsusceptible Citrobacter freundii assessed as susceptible isolates by CLSI M7-A7 broth microdilution method
Citrobacter freundii [26] = assay: Antibacterial activity against ceftazidime-nonsusceptible Citrobacter freundii assessed as resistant isolates by CLSI M7-A7 broth microdilution method
Enterobacter cloacae [27] = assay: Antibacterial activity against ceftazidime-susceptible Enterobacter cloacae by CLSI M7-A7 broth microdilution method
Enterobacter cloacae [28] = assay: Antibacterial activity against ceftazidime-susceptible Enterobacter cloacae assessed as susceptible isolates by CLSI M7-A7 broth microdilution method
Enterobacter cloacae [29] = assay: Antibacterial activity against ceftazidime-susceptible Enterobacter cloacae assessed as resistant isolates by CLSI M7-A7 broth microdilution method
Enterobacter cloacae [30] = assay: Antibacterial activity against ceftazidime-nonsusceptible Enterobacter cloacae by CLSI M7-A7 broth microdilution method
Enterobacter cloacae [31] = assay: Antibacterial activity against ceftazidime-nonsusceptible Enterobacter cloacae assessed as resistant isolates by CLSI M7-A7 broth microdilution method
Escherichia coli [32] = assay: Antibacterial activity against ceftazidime-susceptible Escherichia coli by CLSI M7-A7 broth microdilution method
Escherichia coli [33] = assay: Antibacterial activity against ceftazidime-susceptible Escherichia coli assessed as susceptible isolates by CLSI M7-A7 broth microdilution method
Escherichia coli [34] = assay: Antibacterial activity against ceftazidime-susceptible Escherichia coli assessed as resistant isolates by CLSI M7-A7 broth microdilution method
Escherichia coli [35] = assay: Antibacterial activity against ceftazidime-nonsusceptible Escherichia coli by CLSI M7-A7 broth microdilution method
Escherichia coli [36] = assay: Antibacterial activity against ceftazidime-nonsusceptible Escherichia coli assessed as susceptible isolates by CLSI M7-A7 broth microdilution method
Escherichia coli [37] = assay: Antibacterial activity against ceftazidime-nonsusceptible Escherichia coli assessed as resistant isolates by CLSI M7-A7 broth microdilution method
Klebsiella pneumoniae [38] = assay: Antibacterial activity against ceftazidime-susceptible Klebsiella pneumoniae by CLSI M7-A7 broth microdilution method
Klebsiella pneumoniae [39] = assay: Antibacterial activity against ceftazidime-susceptible Klebsiella pneumoniae assessed as resistant isolates by CLSI M7-A7 broth microdilution method
Klebsiella pneumoniae [40] = assay: Antibacterial activity against ceftazidime-nonsusceptible Klebsiella pneumoniae by CLSI M7-A7 broth microdilution method
Klebsiella pneumoniae [41] = assay: Antibacterial activity against ceftazidime-nonsusceptible Klebsiella pneumoniae assessed as susceptible isolates by CLSI M7-A7 broth microdilution method
Klebsiella pneumoniae [42] = assay: Antibacterial activity against ceftazidime-nonsusceptible Klebsiella pneumoniae assessed as resistant isolates by CLSI M7-A7 broth microdilution method
Morganella morganii [43] = assay: Antibacterial activity against ceftazidime-susceptible Morganella morganii by CLSI M7-A7 broth microdilution method
Morganella morganii [44] = assay: Antibacterial activity against ceftazidime-susceptible Morganella morganii assessed as susceptible isolates by CLSI M7-A7 broth microdilution method
Morganella morganii [45] = assay: Antibacterial activity against ceftazidime-susceptible Morganella morganii assessed as resistant isolates by CLSI M7-A7 broth microdilution method
Proteus mirabilis [46] = assay: Antibacterial activity against ceftazidime-susceptible Proteus mirabilis by CLSI M7-A7 broth microdilution method
Proteus mirabilis [47] = assay: Antibacterial activity against ceftazidime-susceptible Proteus mirabilis assessed as susceptible isolates by CLSI M7-A7 broth microdilution method
Proteus mirabilis [48] = assay: Antibacterial activity against ceftazidime-susceptible Proteus mirabilis assessed as resistant isolates by CLSI M7-A7 broth microdilution method
Serratia marcescens [49] = assay: Antibacterial activity against ceftazidime-susceptible Serratia marcescens by CLSI M7-A7 broth microdilution method
Serratia marcescens [50] = assay: Antibacterial activity against ceftazidime-susceptible Serratia marcescens assessed as resistant isolates by CLSI M7-A7 broth microdilution method
Acinetobacter [51] = assay: Antibacterial activity against multidrug-resistant Acinetobacter by CLSI M7-A7 broth microdilution method
Acinetobacter [52] = assay: Antibacterial activity against multidrug-resistant Acinetobacter assessed as susceptible isolates by CLSI M7-A7 broth microdilution method
Acinetobacter [53] = assay: Antibacterial activity against multidrug-resistant Acinetobacter assessed as resistant isolates by CLSI M7-A7 broth microdilution method
Acinetobacter [54] = assay: Antibacterial activity against imipenem-susceptible Acinetobacter by CLSI M7-A7 broth microdilution method
Acinetobacter [55] = assay: Antibacterial activity against imipenem-susceptible Acinetobacter assessed as susceptible isolates by CLSI M7-A7 broth microdilution method
Acinetobacter [56] = assay: Antibacterial activity against imipenem-susceptible Acinetobacter assessed as resistant isolates by CLSI M7-A7 broth microdilution method
Haemophilus influenzae [57] = assay: Antibacterial activity against beta lactamase-negative Haemophilus influenzae by CLSI M7-A7 broth microdilution method
Haemophilus influenzae [58] = assay: Antibacterial activity against beta lactamase-positive Haemophilus influenzae by CLSI M7-A7 broth microdilution method
Haemophilus influenzae [59] = assay: Antibacterial activity against beta lactamase-positive Haemophilus influenzae assessed as susceptible isolates by CLSI M7-A7 broth microdilution method
Providencia sp. [60] = assay: Antibacterial activity against ceftazidime-susceptible Providencia sp. by CLSI M7-A7 broth microdilution method
Providencia sp. [61] = assay: Antibacterial activity against ceftazidime-susceptible Providencia sp. assessed as susceptible isolates by CLSI M7-A7 broth microdilution method
Providencia sp. [62] = assay: Antibacterial activity against ceftazidime-susceptible Providencia sp. assessed as resistant isolates by CLSI M7-A7 broth microdilution method

Compound: Cc1onc(-c2ccccc2)c1C(=O)N[C@@H]1C(=O)N2[C@@H]1SC(C)(C)[C@@H]2C(=O)O [OXACILLIN]
- MIC50 (Staphylococcus aureus [1]): 0.25 µg/mL (≈ 0.623 µM)
- MIC90 (Staphylococcus aureus [1]): 0.5 µg/mL (≈ 1.25 µM)
- Activity (Staphylococcus aureus [2]): 100%
- Activity (Staphylococcus aureus [3]): 0%
- MIC50 (Staphylococcus aureus [4]): > 8 µg/mL
- MIC90 (Staphylococcus aureus [4]): > 8 µg/mL
- Activity (Staphylococcus aureus [5]): 0%
- Activity (Staphylococcus aureus [6]): 100%
- MIC50 (Staphylococcus aureus [7]): 0.12 µg/mL (≈ 0.299 µM)
- MIC90 (Staphylococcus aureus [7]): 0.25 µg/mL (≈ 0.623 µM)
- Activity (Staphylococcus aureus [8]): 100%
- Activity (Staphylococcus aureus [9]): 0%
- MIC50 (Staphylococcus aureus [10]): > 8 µg/mL
- MIC90 (Staphylococcus aureus [10]): > 8 µg/mL
- Activity (Staphylococcus aureus [11]): 0%
- Activity (Staphylococcus aureus [12]): 100%
- MIC50 (Enterococcus faecalis [13]): > 8 µg/mL
- MIC90 (Enterococcus faecalis [13]): > 8 µg/mL
- MIC50 (Enterococcus faecalis [14]): > 8 µg/mL
- MIC90 (Enterococcus faecalis [14]): > 8 µg/mL
- MIC (Enterococcus faecium): > 8 µg/mL
- MIC50 (Enterococcus faecium): > 8 µg/mL
- MIC90 (Enterococcus faecium): > 8 µg/mL
- MIC50 (Moraxella catarrhalis): 4 µg/mL (≈ 9.96 µM)
- MIC90 (Moraxella catarrhalis): > 8 µg/mL

Compound: GENTAMICIN
- MIC50 (Enterobacteriaceae [15]): 0.5 µg/mL
- MIC90 (Enterobacteriaceae [15]): 2 µg/mL
- Activity (Enterobacteriaceae [16]): 92.6%
- Activity (Enterobacteriaceae [17]): 5.9%
- MIC50 (Enterobacteriaceae [18]): 4 µg/mL
- MIC90 (Enterobacteriaceae [18]): > 16 µg/mL
- Activity (Enterobacteriaceae [19]): 52.3%
- Activity (Enterobacteriaceae [20]): 40.5%
- MIC50 (Citrobacter freundii [21]): 0.5 µg/mL
- MIC90 (Citrobacter freundii [21]): 8 µg/mL
- Activity (Citrobacter freundii [22]): 88%
- Activity (Citrobacter freundii [23]): 10%
- MIC50 (Citrobacter freundii [24]): 0.5 µg/mL
- MIC90 (Citrobacter freundii [24]): 16 µg/mL
- Activity (Citrobacter freundii [25]): 81.8%
- Activity (Citrobacter freundii [26]): 18.2%
- MIC50 (Enterobacter cloacae [27]): 0.25 µg/mL
- MIC90 (Enterobacter cloacae [27]): 0.5 µg/mL
- Activity (Enterobacter cloacae [28]): 96%
- Activity (Enterobacter cloacae [29]): 2%
- MIC50 (Enterobacter cloacae [30]): 0.5 µg/mL
- MIC90 (Enterobacter cloacae [30]): 16 µg/mL
- Activity (Enterobacter cloacae [31]): 17.1%
- MIC50 (Escherichia coli [32]): 0.5 µg/mL
- MIC90 (Escherichia coli [32]): 2 µg/mL
- Activity (Escherichia coli [33]): 91.9%
- Activity (Escherichia coli [34]): 7.5%
- MIC50 (Escherichia coli [35]): 16 µg/mL
- MIC90 (Escherichia coli [35]): > 16 µg/mL
- Activity (Escherichia coli [36]): 46%
- Activity (Escherichia coli [37]): 50.8%
- MIC50 (Klebsiella pneumoniae [38]): 0.25 µg/mL
- MIC90 (Klebsiella pneumoniae [38]): 0.5 µg/mL
- Activity (Klebsiella pneumoniae [39]): 1.9%
- MIC50 (Klebsiella pneumoniae [40]): 8 µg/mL
- MIC90 (Klebsiella pneumoniae [40]): > 16 µg/mL
- Activity (Klebsiella pneumoniae [41]): 43.9%
- Activity (Klebsiella pneumoniae [42]): 43.9%
- MIC50 (Morganella morganii [43]): 0.5 µg/mL
- MIC90 (Morganella morganii [43]): 4 µg/mL
- Activity (Morganella morganii [44]): 91.2%
- Activity (Morganella morganii [45]): 8.8%
- MIC50 (Proteus mirabilis [46]): 1 µg/mL
- MIC90 (Proteus mirabilis [46]): 8 µg/mL
- Activity (Proteus mirabilis [47]): 84.5%
- Activity (Proteus mirabilis [48]): 8.6%
- MIC50 (Serratia marcescens [49]): 0.5 µg/mL
- MIC90 (Serratia marcescens [49]): 1 µg/mL
- Activity (Serratia marcescens [50]): 1.7%
- MIC50 (Acinetobacter [51]): > 16 µg/mL
- MIC90 (Acinetobacter [51]): > 16 µg/mL
- Activity (Acinetobacter [52]): 18.8%
- Activity (Acinetobacter [53]): 75%
- MIC50 (Acinetobacter [54]): 1 µg/mL
- MIC90 (Acinetobacter [54]): > 16 µg/mL
- Activity (Acinetobacter [55]): 74.5%
- Activity (Acinetobacter [56]): 21.3%
- MIC50 (Haemophilus influenzae [57]): 1 µg/mL
- MIC90 (Haemophilus influenzae [57]): 2 µg/mL
- MIC50 (Haemophilus influenzae [58]): 1 µg/mL
- MIC90 (Haemophilus influenzae [58]): 2 µg/mL
- Activity (Haemophilus influenzae [59]): 0%
- MIC50 (Providencia sp. [60]): 2 µg/mL
- MIC90 (Providencia sp. [60]): > 16 µg/mL
- Activity (Providencia sp. [61]): 74.1%
- Activity (Providencia sp. [62]): 14.8%

— ChEMBL document CHEMBL1671626, “In vitro profiling of ceftaroline against a collection of recent bacterial clinical isolates from across the United States” (2008)
